One series concerns the target human MCH-1 receptor (Homo sapiens (Human), UniProt Q99705). The series is described as follows: Binding Assay for Human Melanin-Concentrating Hormone (MCH-1) Receptor (radioligand displacement, CHO-K1 membranes). The conditions noted are these: membranes from CHO-K1 cells expressing human MCH1 receptor, [3H]-labeled radioligand, Ki from IC50 by Cheng Prusoff. The protocol: Evaluation of the affinity of compounds for the human MCH-1 receptor was accomplished using 4-(3,4,5-tritritiumbenzyloxy)-1-(1-(2-(pyrrolidin-1-yl)ethyl)-1H-indazol-5-yl)pyridin-2(1H)-one and membranes prepared from stable CHO-K1 cells expressing the human MCH1 receptor obtained from Euroscreen (Batch 1138). Cell membrane homogenates (8.92 μg protein) were incubated for 60 min at 25° C. with […] of the [^3H]-labeled compound in the absence or presence of the test compound in 50 mM Tris-HCl buffer, pH 7.4. Nonspecific binding was determined in the presence of 50 μM 1-(5-(4-cyanophenyl)bicyclo[3.1.0]hexan-2-yl)-3-(4-fluoro-3-(trifluoromethyl)phenyl)-1-(3-(4-methylpiperazin-1-yl)propyl)urea. Following incubation, the samples were filtered rapidly under vacuum through Skatron 11731 filters, pre-soaked in 0.5% polyethylenimine, and washed with ice-cold 50 mM Tris-HCl buffer, pH 7.4, (wash setting 9,9,0) using a Skatron cell harvester. The filters were counted for radioactivity in a liquid scintillation counter (Tri-Carb 2100TR, Packard) using a scintillation cocktail (Ultima Gold MV, Perkin Elmer).
The results are expressed as a percent inhibition of the control radioligand specific binding. The IC50 value (concentration causing a half-maximal inhibition of control specific binding) and Hill coefficient (nH) were determined by non-linear regression analysis of the competition curve using Hill equation curve fitting. The inhibition constant (Ki) was calculated from the Cheng Prusoff equation: (Ki=IC50/(1+(L/KD)), where L=concentration of radioligand in the assay, and KD=affinity of the radioligand for the receptor.

Each structure is given as a SMILES string. Like-named read-outs stand apart in the source and are kept apart here.

human MCH-1 receptor, sequence (Q99705 whole entry): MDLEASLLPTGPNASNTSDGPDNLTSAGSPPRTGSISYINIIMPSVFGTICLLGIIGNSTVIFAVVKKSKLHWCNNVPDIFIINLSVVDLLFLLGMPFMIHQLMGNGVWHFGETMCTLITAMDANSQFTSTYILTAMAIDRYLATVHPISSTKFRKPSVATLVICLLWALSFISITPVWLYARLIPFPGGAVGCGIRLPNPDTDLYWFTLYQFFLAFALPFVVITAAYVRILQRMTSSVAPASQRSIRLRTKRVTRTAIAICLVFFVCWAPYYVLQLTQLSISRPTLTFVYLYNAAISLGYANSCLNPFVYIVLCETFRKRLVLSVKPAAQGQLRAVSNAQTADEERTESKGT

`Cl.O=c1cc(OCc2ccccc2)ccn1-c1ccc2c3c([nH]c2c1)CC1CCC3N1` (centres unmarked) [Example 8, 4-(Benzyloxy)-1-(5,6,7,8,9,10-hexahydro-7,10-iminocyclohept[b]indol-3-yl)pyridin-2(1H)-one hydrochloride] returned a melting point of 209 to 214 °C. Further, the Ki on human MCH-1 receptor (read-out: MCH-1 Ki) came to 9.8 nM.

As to `Cl.Cn1c2c(c3ccc(-n4ccc(OCc5ccc(F)cn5)cc4=O)nc31)C1CCCC(C2)N1` (centres unmarked) [Example 40, 4-((5-Fluoropyridin-2-yl)methoxy)-1-(11-methyl-5,6,7,8,9,10-hexahydro-5,9-imino-11H-cycloocta[4,5]pyrrolo[2,3-b]pyridin-2-yl)pyridin-2(1H)-one hydrochloride], the melting point was 170 to 180 °C. Moreover, the Ki on human MCH-1 receptor (read-out: MCH-1 Ki) was 49 nM.

Take `CC(=O)N1C2CCC1c1c(n(C)c3cc(-n4ccc(OCc5ccccc5)cc4=O)ccc13)C2` (centres unmarked) [Example 27, 1-(11-Acetyl-5-methyl-5,6,7,8,9,10-hexahydro-7,10-iminocyclohept[b]indol-3-yl)-4-(benzyloxy)pyridin-2(1H)-one]: the melting point was in the range of 91 to 96 °C. Besides, the Ki at human MCH-1 receptor (read-out: MCH-1 Ki) worked out at 131 nM.

For `Cl.Cn1c2c(c3ccc(-n4ccc(OCc5ccc(C(F)(F)F)nc5)cc4=O)cc31)C1CCCC(C2)N1` (centres unmarked) [Example 19, 1-(5-Methyl-6,7,8,9,10,11-hexahydro-7,11-imino-5H-cyclooct[b]indol-3-yl)-4-((6-(trifluoromethyl)pyridin-3-yl)methoxy)pyridin-2 (1H)-one hydrochloride], the melting point lay in the range of 240 to 250 °C. Besides, at human MCH-1 receptor (read-out: MCH-1 Ki), the inhibition constant (Ki) worked out at 13 nM.

The molecule `Cl.O=c1cc(OCc2ccccc2)ccn1-c1ccc2c3c([nH]c2c1)CC1CCC3N1` (single isomer, unassigned; enantiomer a) [Example 21, (+)-4-(Benzyloxy)-1-(5,6,7,8,9,10-hexahydro-7,10-iminocyclohept[b]indol-3-yl)pyridin-2(1H)-one hydrochloride (Enantiomer A)] came in with a melting point of 211 to 212 °C. This molecule yielded an inhibitory constant (Ki) on human MCH-1 receptor (MCH-1 Ki (nM)) of 39 nM.

As for `CN1C2CCCC1c1c(n(C)c3cc(-n4ccc(OCc5ccccc5)cc4=O)ccc13)C2.Cl` (centres unmarked) [Example 31, 4-(Benzyloxy)-1-(5,12-dimethyl-6,7,8,9,10,11-hexahydro-7,11-imino-5H-cyclooct[b]indol-3-yl)pyridin-2(1H)-one hydrochloride], the melting point lay in the range of 161 to 180 °C. Moreover, at human MCH-1 receptor (read-out: MCH-1 Ki), the Ki amounted to 14 nM.

Turning to `Cl.Cn1c2c(c3ccc(-n4ccc(-c5ccc(C(F)(F)F)nc5)cc4=O)cc31)C1CCCC(C2)N1` (centres unmarked) [Example 13, 1-(5-Methyl-6,7,8,9,10,11-hexahydro-7,11-imino-5H-cyclooct[b]indol-3-yl)-4-(6-(trifluoromethyl)pyridin-3-yl)pyridin-2(1H)-one hydrochloride], the melting point was 265 to 274 °C (dec.). The inhibitory constant (Ki) at human MCH-1 receptor (read-out: MCH-1 Ki) came out at 46.3 nM.

In turn, `Cl.Cn1c2c(c3ccc(-n4ccc(OCc5ccccc5)cc4=O)nc31)C1CCCC(C2)N1` (centres unmarked) [Example 41, 4-(Benzyloxy)-1-(11-methyl-5,6,7,8,9,10-hexahydro-5,9-imino-11H-cycloocta[4,5]pyrrolo[2,3-b]pyridin-2-yl)pyridin-2(1H)-one hydrochloride] yielded a melting point of 191 to 206 °C. Moreover, on human MCH-1 receptor (read-out: MCH-1 Ki), the inhibition constant (Ki) was 30 nM.

`CN1C2CCC1c1c(n(C)c3cc(-n4ccc(OCc5ccccc5)cc4=O)ccc13)C2.Cl` (centres unmarked) [Example 26, 4-(Benzyloxy)-1-(5,11-dimethyl-5,6,7,8,9,10-hexahydro-7,10-iminocyclohept[b]indol-3-yl)pyridin-2(1H)-one hydrochloride] had a melting point of 121 to 128 °C. The Ki on human MCH-1 receptor (read-out: MCH-1 Ki) stood at 9.7 nM.

On to `Cl.O=c1cc(-c2ccc(C(F)(F)F)nc2)ccn1-c1ccc2c3c([nH]c2c1)CC1CCC3N1` (centres unmarked) [Example 10, 1-(5,6,7,8,9,10-Hexahydro-7,10-iminocyclohept[b]indol-3-yl)-4-(6-(trifluoromethyl)pyridin-3-yl)pyridin-2(1H)-one hydrochloride], for which the melting point is 215 to 235 °C (dec.). Further, at human MCH-1 receptor (read-out: MCH-1 Ki), the Ki came to 22.7 nM.

The record behind these values is patent publication US8629158B2, “Azabicycloalkane-indole and azabicycloalkane-pyrrolo-pyridine MCH-1 antagonists, methods of making, and use thereof” (Albany Molecular Research, Inc., priority 2009, dated 2014).
